Results taken from ChEMBL document CHEMBL3045242, “Synthesis and Insect Growth Regulatory Activity of 1,5-Disubstituted Imidazoles with Non-terpene Chains” (Agric Biol Chem, 1991).
Active and inactive are the calls of the source. The calls are words filed in the database; no cut-off is given here.

Test system: Bombyx mori
Experiment: Juvenile hormone like activity in fourth-instar larvae of Bombyx mori assessed as induction of precocious metamorphosis at 1 ug applied topically
Assay type: functional
Details: not given

| Structure (SMILES) | Activity |
| --- | --- |
| COC(C)(C)CCC[C@H](C)C/C=C/C(C)=C/C(=O)OC(C)C [METHOPRENE] | 0% |

Test system: Bombyx mori
Experiment: Juvenile hormone like activity in fourth-instar larvae of Bombyx mori C146 x N137 assessed as induction of precocious metamorphosis applied topically
Assay type: functional
Details: not given

| Structure (SMILES) | ED50 |
| --- | --- |
| CC(Oc1cccc(-c2cncn2C(C)C)c1)c1ccccc1 (stereo unspecified) | >40 µg |
| CC(C)n1cncc1-c1cccc(OCc2cccc(Cl)c2)c1 | >40 µg |
| CCCCCCOc1cccc(-c2cncn2C(C)C)c1 | >40 µg |
| CC(C)n1cncc1-c1cccc(OCc2ccc(Cl)cc2)c1 | >40 µg |
| COc1cccc(COc2cccc(-c3cncn3C(C)C)c2)c1 | >40 µg |
| CC(C)n1cncc1-c1cccc(OCCc2ccccc2)c1 | >40 µg |
| COc1ccc(COc2cccc(-c3cncn3C(C)C)c2)cc1 | >40 µg |
| COc1cccc(-c2cncn2C(C)C)c1 | >40 µg |
| CC(C)=CCC/C(C)=C/COc1cccc(-c2cncn2C(C)C)c1 | >40 µg |
| CC(C)COc1cccc(-c2cncn2C(C)C)c1 | >40 µg |
| CC(C)n1cncc1-c1cccc(Oc2ccccc2)c1 | 53.3 µg |
| CC(C)n1cncc1-c1cccc(OCc2ccccc2Cl)c1 | >40 µg |
| CC(C)n1cncc1-c1cccc(OCc2ccccc2)c1 | 13.2 µg |
| CC(C)n1cncc1-c1cccc(OCc2ccc(F)cc2)c1 | >40 µg |
| CCCCCCCCOc1cccc(-c2cncn2C(C)C)c1 | >40 µg |

Test system: Bombyx mori
Experiment: Juvenile hormone like activity in fourth-instar larvae of Bombyx mori assessed as induction of precocious metamorphosis at 40 ug/larvae applied topically in presence of 0.1 ug of methoprene
Assay type: functional
Details: not given

| Structure (SMILES) | Activity |
| --- | --- |
| CC(C)n1cncc1-c1cccc(OCc2ccccc2)c1 | 70% |

Test system: Bombyx mori
Experiment: Juvenile hormone like activity in third-instar larvae of Bombyx mori assessed as spun cocoons at fourth-instar at 5 to 160 ug applied topically
Assay type: functional, organism-based
Details: not given

| Structure (SMILES) | Activity |
| --- | --- |
| CC(C)Cn1cncc1-c1cccc(Oc2ccccc2)c1 | Active |
| CC(C)n1cncc1-c1cccc(OCc2ccccc2)c1 | Active |

Test system: Bombyx mori
Experiment: Juvenile hormone like activity in fourth-instar larvae of Bombyx mori assessed as induction of precocious metamorphosis at 40 ug/larvae applied topically in presence of 1 ug of methoprene
Assay type: functional
Details: not given

| Structure (SMILES) | Activity |
| --- | --- |
| CC(C)n1cncc1-c1cccc(OCc2ccccc2)c1 | 0% |

Test system: Bombyx mori
Experiment: Juvenile hormone like activity in fourth-instar larvae of Bombyx mori C146 x N137 assessed as induction of precocious metamorphosis at > 40 ug/larvae applied topically
Assay type: functional
Details: not given

| Structure (SMILES) | Activity |
| --- | --- |
| CC(Oc1cccc(-c2cncn2C(C)C)c1)c1ccccc1 (stereo unspecified) | 0% |
| CC(C)n1cncc1-c1cccc(OCc2cccc(Cl)c2)c1 | 5% |
| CCCCCCOc1cccc(-c2cncn2C(C)C)c1 | 35% |
| CC(C)n1cncc1-c1cccc(OCc2ccc(Cl)cc2)c1 | 20% |
| COc1cccc(COc2cccc(-c3cncn3C(C)C)c2)c1 | 25% |
| CC(C)n1cncc1-c1cccc(OCCc2ccccc2)c1 | 20% |
| COc1ccc(COc2cccc(-c3cncn3C(C)C)c2)cc1 | 15% |
| COc1cccc(-c2cncn2C(C)C)c1 | 0% |
| CC(C)=CCC/C(C)=C/COc1cccc(-c2cncn2C(C)C)c1 | 0% |
| CC(C)COc1cccc(-c2cncn2C(C)C)c1 | 35% |
| CC(C)n1cncc1-c1cccc(OCc2ccccc2Cl)c1 | 0% |
| CCCCCCCCOc1cccc(-c2cncn2C(C)C)c1 | 25% |

Test system: Bombyx mori
Experiment: Juvenile hormone like activity in fourth-instar larvae of Bombyx mori C137 x N137 assessed as induction of precocious metamorphosis at > 60 ug/larvae applied topically
Assay type: functional
Details: not given

| Structure (SMILES) | Activity |
| --- | --- |
| Cn1cncc1-c1cccc(OCc2ccccc2)c1 | 0% |

Test system: Bombyx mori
Experiment: Juvenile hormone like activity in fourth-instar larvae of Bombyx mori C137 x N137 assessed as induction of precocious metamorphosis at > 40 ug/larvae applied topically
Assay type: functional
Details: not given

| Structure (SMILES) | Activity |
| --- | --- |
| CC(C)n1cncc1-c1cccc(O)c1 | 0% |
| CC(C)n1cncc1-c1ccccc1OCc1ccccc1 | 0% |
| c1ccc(COc2cccc(-c3cncn3Cc3ccccc3)c2)cc1 | 0% |
| CC(C)=CCC/C(C)=C/COc1cccc(-c2cncn2CC(C)C)c1 | 0% |
| CC(C)n1cncc1-c1ccc(OCc2ccccc2)cc1 | 30% |
| CC(C)(C)Cn1cncc1-c1cccc(OCc2ccccc2)c1 | 0% |
| CCCCn1cncc1-c1cccc(OCc2ccccc2)c1 | 0% |

Test system: Bombyx mori
Experiment: Juvenile hormone like activity in fourth-instar larvae of Bombyx mori assessed as induction of precocious metamorphosis at 40 ug/larvae applied topically
Assay type: functional
Details: not given

| Structure (SMILES) | Activity |
| --- | --- |
| CC(C)n1cncc1-c1cccc(OCc2ccccc2)c1 | 100% |

Test system: Bombyx mori
Experiment: Juvenile hormone like activity in fourth-instar larvae of Bombyx mori assessed as induction of precocious metamorphosis at 40 ug/larvae applied topically in presence of 0.5 ug of methoprene
Assay type: functional
Details: not given

| Structure (SMILES) | Activity |
| --- | --- |
| CC(C)n1cncc1-c1cccc(OCc2ccccc2)c1 | 30% |

Test system: Bombyx mori
Experiment: Toxicity in third-instar larvae of Bombyx mori at 160 ug applied topically
Assay type: organism-based
Details: in vivo, topical_or_ocular

| Structure (SMILES) | Activity |
| --- | --- |
| CC(C)Cn1cncc1-c1ccc(Oc2ccccc2)cc1 | Toxic |
| CC(C)n1cncc1-c1cccc(OCc2ccccc2)c1 | Toxic |

Test system: Bombyx mori
Experiment: Juvenile hormone like activity in third-instar larvae of Bombyx mori assessed as spun cocoons at fifth-instar at 5 to 160 ug applied topically
Assay type: functional, organism-based
Details: not given

| Structure (SMILES) | Activity |
| --- | --- |
| CC(C)Cn1cncc1-c1cccc(Oc2ccccc2)c1 | Active |
| CC(C)n1cncc1-c1cccc(OCc2ccccc2)c1 | Active |

Test system: Bombyx mori
Experiment: Juvenile hormone like activity in fourth-instar larvae of Bombyx mori C137 x N137 assessed as induction of precocious metamorphosis applied topically
Assay type: functional
Details: not given

| Structure (SMILES) | ED50 |
| --- | --- |
| CC(C)Cn1cncc1-c1cccc(OCc2ccccc2)c1 | 28 µg |
| CC(C)n1cncc1-c1cccc(O)c1 | >40 µg |
| CCCn1cncc1-c1cccc(OCc2ccccc2)c1 | 21.1 µg |
| CC(C)Cn1cncc1-c1ccc(Oc2ccccc2)cc1 | 55.5 µg |
| Cn1cncc1-c1cccc(OCc2ccccc2)c1 | 60 µg |
| CC(C)n1cncc1-c1ccccc1OCc1ccccc1 | 40 µg |
| CCn1cncc1-c1cccc(OCc2ccccc2)c1 | 30.2 µg |
| CC(C)Cn1cncc1-c1cccc(Oc2ccccc2)c1 | 14.7 µg |
| c1ccc(COc2cccc(-c3cncn3Cc3ccccc3)c2)cc1 | 40 µg |
| CC(C)=CCC/C(C)=C/COc1cccc(-c2cncn2CC(C)C)c1 | >40 µg |
| CC(C)n1cncc1-c1ccc(OCc2ccccc2)cc1 | 40 µg |
| CC(C)n1cncc1-c1cccc(Oc2ccccc2)c1 | 21.6 µg |
| CC(C)(C)Cn1cncc1-c1cccc(OCc2ccccc2)c1 | 40 µg |
| CC(C)n1cncc1-c1cccc(OCc2ccccc2)c1 | 0.9 µg |
| CCCCn1cncc1-c1cccc(OCc2ccccc2)c1 | 40 µg |
